Data reported in patent US8980646B2, “Proteolytic and covalent antibodies” (priority 2003, dated 2015).

Assays:
human IgG HS-2 = experiment: Irreversible inhibition of HS-2 IgG-catalyzed [Tyr10-125I]-VIP cleavage; type: biochemical; details: for IC50: IgG 2 μM preincubated 16 h with CRA, unreacted CRA removed
Experimental: FIG. 23. Inhibition of polyclonal antibody catalyzed VIP cleavage by VIP-CRA 3 and hapten CRA 1. Panel A: Reversed-phase HPLC profiles showing cleavage of [Tyr^10-^125I]-VIP at multiple sites by human IgG HS-2. [Tyr^10-^1251I]-VIP incubated in the presence (●) or absence (◯) of HS-2 IgG (2 μM) for 16 h and subjected to HPLC [Nova-pak C, 3.9×150 mm; 0.1% TFA in water: 0.1% TFA in 80% acetonitrile 95:5 for 10 min, 95:5 to 30:70 in 55 min, 30:70 to 0:100 in 5 min, 0:100 for 5 min (0.5 ml/min)]. Shown are values of ^125I radioactivity recovered in the HPLC fractions (0.5 ml). Panel B: Irreversible inhibition of HS-2 IgG-catalyzed [Tyr^10-^125I]-VIP cleavage by VIP-CRA 3 and hapten CRA 1. IgG (2 μM) was preincubated for 16 h in the absence or presence of increasing concentrations of VIP-CRA 3 (●) or hapten CRA 1 (◯). Following removal of unreacted CRA by chromatography on immobilized Protein G, the residual catalytic activity of the IgG was measured using [Tyr^10-^125I]-VIP as substrate. Data are means±SD. Control HS-2 IgG incubated in the absence of CRAs cleaved 2791 c.p.m. [Tyr^10-^125I]-VIP.
Preparation and assay of cleavage of [Tyr^10-^125I]-VIP were described previously (24). To determine if the CRAs inhibit Abs irreversibly, IgG (2 μM) was incubated (37° C.) with 1 or 3 for 16 h in 50 mM Tris.HCl-0.1M Gly (pH 8.0) containing 2.5% DMSO and 0.025% Tween 20. Unreacted 1 or 3 was then removed by chromatography of the reaction mixtures (0.2 ml) on protein G columns as in ref35 (50 μl settled gel; washed with 0.8 ml 50 mM Tris.HCl, pH 7.4; eluted with 0.2 ml 0.1 M Gly.HCl, pH 2.7; neutralized with 1M Tris.HCl, pH 9). Fifty μl aliquots of the recovered IgG (and IgG-CRA complexes) were incubated with [Tyr^10-^125I]-VIP (86,000 c.p.m.) for 18 h and peptide cleavage was determined by measuring the radioactivity soluble in trichloroacetic acid. Control IgG samples were incubated without CRA, chromatographed and analyzed for VIP cleaving activity in the same way.

murine splenocytes = experiment: Hapten CRA I staining of splenocytes / B cells (microscopy, flow cytometry, extract affinity chromatography)
IgG = type: biochemical, human
polyclonal murine IgM = type: biochemical, mouse
[1] = molecular target: gp120-CRA III (HIV-1, MN strain) (UniProt P05877); experiment: ELISA, serum 1:100, immobilized III
[2] = molecular target: HIV-1 gp120 (MN strain, recombinant, baculovirus expression system) (HIV-1, MN strain) (UniProt P05877); experiment: ELISA, serum 1:100, immobilized gp120
[3] = molecular target: exEGFR protein CRA IV (human) (UniProt P00533)
peptide-AMC substrates = experiment: Peptide-AMC cleavage by IgM, IgG and Fab (fluorimetry); type: biochemical; details: 675 nM pepsin; other conditions as FIG. 31B
[4] = test system: anti-VIP IgG c23.5 light chain; type: binding, mouse
[5] = Irreversible hapten CRA I binding by IgG, scFv and trypsin (SDS-electrophoresis of biotin-containing adducts); details: CRA I 100 μM; linear regression of FIG. 8B data

## N=C(N)c1ccc(C(NC(=O)CCCCCNC(=O)CCCC[C@@H]2SC[C@@H]3NC(=O)N[C@@H]32)P(=O)(Oc2ccccc2)Oc2ccccc2)cc1 (stereo partly drawn) [hapten CRA I, Diphenyl N-(6-biotinamidohexanoyl)amino(4-amidinophenyl)methanephosphonate]
Human IgG HS-2
  IC50: 36 µM
Murine splenocytes
  cell viability following incubation (trypan blue exclusion): No loss of viability
Murine splenocytes; 3 repeat experiments
  CRA I-stained cells positive for B cell marker CD19: 82±4%
Murine splenocytes; B cell extract, densitometry
  total CRA content of B cells adsorbed by immobilized Abs to μ and κ/λ chains: Eighty
Murine splenocytes; N 3 experiments, counting 400 lymphocytes, UV microscope
  cells displaying intense staining: 11±2
Murine splenocytes; flow cytometry
  minority subpopulation with very high fluorescence intensity: 14%
Murine splenocytes; flow cytometry, 100 μM, 4 hours
  CRA I-treated cells with fluorescence intensity exceeding compound II-treated cells: Seventy nine
IgG
  effect on IgG-catalyzed peptide-MCA cleavage: inhibited
Polyclonal murine IgM
  inhibition of murine IgM activity: 9-100%
Polyclonal murine IgM; read-out: IC50, murine IgM Glu-Ala-Arg-AMC cleavage
  IC50: 42 µM

## VIP-CRA 3: N-terminally biotinylated VIP with amidino phosphonate diester on the Lys20 side chain; called VIP-CRA 4 in Examples VI, XI
Human IgG HS-2; IgG 2 μM preincubated 16 h
  VIP-CRA concentration giving near-complete inhibition of catalysis: > 20 µM
Human IgG HS-2
  IC50: 7 µM

## nonimmune mouse IgG / nonimmune mouse serum (antibody)
[1]
  A490: -0.002 A490
[2]
  A490: 0.001 A490
[3]
  kobs (pseudo-first order rate constant for accumulation of adducts): < 0.0072 h⁻¹

## pepsin: purified porcine pepsin used as control
peptide-AMC substrates
  cleavage of Glu-Ala-Arg-AMC by pepsin: did not cleave

## vasoactive intestinal peptide [VIP]
[4]
  inhibition of formation of VIP-CRA 3 adducts with anti-VIP light chain: 41.0±7%

B1: trypsin: porcine trypsin, type IX, Sigma (protein, UniProt P00761 9-231, looked up)
Trypsin: IVGGYTCAANSIPYQVSLNSGSHFCGGSLINSQWVVSAAHCYKSRIQVRLGEHNIDVLEGNEQFINAAKIITHPNFNGNTLDNDIMLIKLSSPATLNSRVATVSLPRSCAAAGTECLISGWGNTKSSGSSYPSLLQCLKAPVLSDSSCKSSYPGQITGNMICVGFLEGGKDSCQGDSGGPVVCNGQLQGIVSWGYGCAQKNKPGVYTKVCNYVNWIQQTIAAN
[5]
  velocity of covalent I adduct formation: 11.9±0.6 AAU/min
